Results on 6 molecules are retold here after patent publication US6960678B2, “Silanol enzyme inhibitors” (The Research Foundation of State University of New York, priority 1996, dated 2005).

Where two headings read alike, the source gives them in different places.

In one series the test system is HIV-1 virus. In words: antiviral cell culture assay (IC90). Type of series: cell-based.
Another series deals with T1, HIV-protease enzyme (Human immunodeficiency virus type 1 group M subtype B, UniProt P04585).
T1 construct: tested against HIV-protease enzyme (Ki)
In words: HIV-protease enzyme inhibition (Ki). Type of series: biochemical, HIV-1.

Series [1] is described as follows: storage stability as solid or in solution (polymerization / oligomerization). It counts as physicochemical. The source says:
The compounds are stable and can be stored for weeks or longer at room temperature without noticeable decomposition in either solid or solution form. In addition, there is no intrinsic toxicity associated with silicon (Friedberg, K. D. and Schiller, E., Handbook on Toxicity of Inorganic Compounds, Eds. Seiler H, G., and Sigel, H.; Marcel Dekker, New York, 1988, pp. 595-617).
The C2 symmetry of the HIV protease has led to the development of C2 symmetric inhibitors such as Merck's L-700, 417. The silanediol analog 9a was prepared from the commercially available dichlorodiphenylsilane. Treatment of this dichlorosilane with the enantiomerically pure lithium reagent 53b led to the symmetric diether 54 in 75% yield. Cleavage of the ethers and oxidation to the diacid was followed by preparation of the diamide 56. For this study, N-benzyl amides were used as the simplest first analog. Hydrolysis of diphenylsilane 56 to the silanediol 9a was effected by treatment with triflic acid in dichloromethane at 0° C. for ten to 30 minutes. Under these conditions, both phenyl groups on silicon are lost very rapidly. We believe that the intermediate formed is not a di-triflate, but is the spirocyclic intermediate 57. Addition of the triflic acid-derived intermediate to an aqueous phase (either acidic, buffered, or basic) serves to finish hydrolysis to the diol 9a. […]

Series [2] deals with T2, recombinant HIV-1 protease (Human immunodeficiency virus type 1 group M subtype B, UniProt P04585).
T2 construct: recombinant HIV-1 protease
Kind of series: HIV-1 protease inhibition, cleavage of substrate polypeptide, HPLC-based detection. It counts as biochemical. The source says: The standard test procedure for HIV-1 protease inhibition uses recombinant HIV-1 protease in an assay which monitors cleavage of a substrate polypeptide using an HPLC-based detection system. Proc. Nat. Acad. Sci. 86, 9752 (1989).

Series [3] concerns angiotensin-converting enzyme. The note with it: Galardy and Kortylewicz 1985; cited from earlier work.
The mark [4] stands for this setting: HIV-protease enzyme, read-out: Ki.

As to `CC(C)(C)NC(=O)[C@@H]1CN(Cc2cccnc2)CCN1C[C@@H](O)C[C@@H](Cc1ccccc1)C(=O)N[C@H]1c2ccccc2C[C@H]1O` [indinavir, reference compound], it took 33 nM to reach the 90% level in the series on HIV-1 virus (Human immunodeficiency virus 1) (IC90). In other words, the double-digit nanomolar range. `O=C(NCc1ccccc1)[C@H](Cc1ccccc1)C[Si](O)(O)C[C@@H](Cc1ccccc1)C(=O)NCc1ccccc1` [Compound 9a, Di-benzyl 2-(S)-6-(S)-dibenzyl-4,4-dihydroxy-4-sila-heptanediamide] displayed a Ki on HIV-protease enzyme of 3160 nM. In addition, in series [1] (as a solid or in deuterochloroform solution, for weeks), the “storage stability of the pure diol” value was “without polymerization”. Also, the “stability in DMSO” value in series [1] (taken up in DMSO, one week) is “fully stable”. In addition, the IC50 in series [2] came out at 5600 nM. As to `C[Si](C)(O)O` [dimethylsilanediol], the “inhibitor of angiotensin-converting enzyme” value in series [3] is “inactive”.

For the molecule “Di-[1-(S)-(2,(R)-hydroxyindanyl)]2-(S)-6-(S)-dibenzyl-4,4-dihydroxy-4-sila-heptanediamide [Compound 9b]”, at HIV-protease enzyme (setting [4]), the Ki is 2.7 nM. For the same molecule, in the series with HIV-1 virus, the IC90 turned out to be 170 nM.

Turning to `O=C(NCc1ccccc1)C(Cc1ccccc1)C[Si]1(CC(Cc2ccccc2)C(=O)NCc2ccccc2)O[Si](CC(Cc2ccccc2)C(=O)NCc2ccccc2)(CC(Cc2ccccc2)C(=O)NCc2ccccc2)O[Si](CC(Cc2ccccc2)C(=O)NCc2ccccc2)(CC(Cc2ccccc2)C(=O)NCc2ccccc2)O[Si](CC(Cc2ccccc2)C(=O)NCc2ccccc2)(CC(Cc2ccccc2)C(=O)NCc2ccccc2)O1` [Compound 61, 1,1,3,3,5,5,7,7-octa(3-[2-(S)-2-phenylmethylpropionyl)]-cyclotetrasiloxane octa(N-phenylmethylamide)], the Ki at HIV-protease enzyme (setting [4]) turned out to be 2300 nM. With `O=C(NCc1ccccc1)C(Cc1ccccc1)C[Si](O)(CC(Cc1ccccc1)C(=O)NCc1ccccc1)O[Si](O)(CC(Cc1ccccc1)C(=O)NCc1ccccc1)CC(Cc1ccccc1)C(=O)NCc1ccccc1` [Compound 60, 1,3-dihydroxy-1,1,3-3-tetra(3-[2-(S)-2-phenylmethylpropionyl])-disiloxane tetra(N-phenylmethylamide)], the Ki on HIV-protease enzyme (setting [4]) worked out at 4670 nM.
